Results as given in patent US11090304B2 (Amgen Inc., priority 2018, dated 2021).
Like-named read-outs stand apart in the source and are kept apart here.

Legend:
[1] = biological target: GDP-bound KRAS protein (aa 1-169), containing both G12C and C118A amino acid substitutions (Homo sapiens, UniProt P01116, C118A/G12C); experiment: Coupled nucleotide exchange assay (SOS-mediated, AlphaScreen); type: biochemical; settings: 5 min compound pre-incubation
[2] = tested on: Phosphorylation of ERK1/2 in MIA PaCa-2 cells; experiment: Phospho-ERK1/2 MSD assay in MIA PaCa-2 cells; type: cell-based; settings: read-out: p-ERK IC50 (2 h; MIA PaCa-2), 2 h compound treatment
Method in brief: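 IC50 comes from a 4-parameter logistic fit of MSD phospho-ERK1/2 signal in lysates. Before lysis, MIA PaCa-2 or A549 cells were exposed to titrated compound for 2 or 4 h at 37 °C, followed by a 10 min 10 ng/mL EGF stimulus.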

GDP-bound KRAS protein (aa 1-169), containing both G12C and C118A amino acid substitutions, sequence (P01116 1-169 isoform P01116-2 G12C/C118A): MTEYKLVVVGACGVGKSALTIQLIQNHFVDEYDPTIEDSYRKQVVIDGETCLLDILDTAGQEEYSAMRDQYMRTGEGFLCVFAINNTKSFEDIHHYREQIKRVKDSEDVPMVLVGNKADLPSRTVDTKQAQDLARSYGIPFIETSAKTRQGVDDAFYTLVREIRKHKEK

SMILES	Coupled exchange IC50 (5 min) [1]	IC50 ([2]; Homo sapiens, MIA PaCa-2, 2 h) [nM]	IC50 ([1]; read-out: Coupled exchange IC50 (5 min)) [nM]	IC50 [2] [nM]
C=CC(=O)N1CCN(c2nc(=O)n(-c3c(C)ncnc3C3CC3)c3nc(-c4ccccc4F)c(Cl)cc23)[C@@H](C)C1 [Example 60-30, 6-chloro-1-(4-cyclopropyl-6-methyl-5-pyrimidinyl)-7-(2-fluorophenyl)-4-((2S)-2-methyl-4-(2-propenoyl)-1-piperazinyl)pyrido[2,3-d]pyrimidin-2(1H)-one]	0.218 | nda μM	200		
C=CC(=O)N1CCN(c2nc(=O)n(-c3c(C)cccc3C(C)C)c3nc(-c4c(O)cccc4Cl)c(F)cc23)[C@@H](C)C1 [Example 68-1, 7-(2-Chloro-6-hydroxyphenyl)-6-fluoro-1-(2-methyl-6-(2-propanyl)phenyl)-4-((2S)-2-methyl-4-(2-propenoyl)-1-piperazinyl)pyrido[2,3-d]pyrimidin-2(1H)-one]	0.111 | nda μM	214		
C=CC(=O)N1CCN(c2nc(=O)n(-c3ccccc3C(C)C)c3nc(-c4nc(N)ccc4Cl)c(Cl)cc23)[C@@H](C)C1 [Example 70-1, 7-(6-Amino-3-chloro-2-pyrindinyl)-6-chloro-4-((2S)-2-methyl-4-(2-propenoyl)-1-piperazinyl)-1-(2-(2-propanyl)phenyl)pyrido[2,3-d]pyrimidin-2(1H)-one]	0.225 | nda μM	225		
C=CC(=O)N1CCN(c2nc(=O)n(-c3ccccc3C(C)C)c3nc(-c4nc(N)cc5ccccc45)c(Cl)cc23)[C@@H](C)C1 [Example 70-2, 7-(3-amino-1-isoquinolinyl)-6-chloro-4-((2S)-2-methyl-4-(2-propenoyl)-1-piperazinyl)-1-(2-(2-propanyl)phenyl)pyrido[2,3-d]pyrimidin-2(1H)-one]	0.184 | nda μM	213		
C=CC(=O)N1CCN(c2nc(=O)n(-c3c(C)cccc3C(C)C)c3nc(-c4nc(N)ccc4Cl)c(Cl)cc23)[C@@H](C)C1 [Example 70-3, 7-(6-amino-3-chloro-2-pyridinyl)-6-chloro-1-(2-methyl-6-(2-propanyl)phenyl)-4-((2S)-2-methyl-4-(2-propenoyl)-1-piperazinyl)pyrido[2,3-d]pyrimidin-2(1H)-one]	0.125 | nda μM	206		
C=CC(=O)N1CCN(c2nc(=O)n(-c3c(C)cccc3C(C)C)c3nc(-c4nc(N)ccc4F)c(Cl)cc23)[C@@H](C)C1 [Example 70-4, 7-(6-amino-3-fluoro-2-pyridinyl)-6-chloro-1-(2-methyl-6-(2-propanyl)phenyl)-4-((2S)-2-methyl-4-(2-propenoyl)-1-piperazinyl)pyrido[2,3-d]pyrimidin-2(1H)-one]	0.398 | nda μM	280		
C=CC(=O)N1CCN(c2nc(=O)n(-c3ccccc3C(C)C)c3nc(-c4ccccc4F)c(C)cc23)[C@@H](C)C1 [Example 74-1, 7-(2-Fluorophenyl)-6-methyl-4-((2S)-2-methyl-4-(2-propenoyl)-1-piperazinyl)-1-(2-(2-propanyl)phenyl)pyrido[2,3-d]pyrimidin-2(1H)-one]	0.951 | nda μM	621		
C=CC(=O)N1CCN(c2nc(=O)n(-c3c(C)ccnc3C(C)C)c3nc(-c4ccccc4F)c(C)cc23)[C@@H](C)C1 [Example 74-2, 7-(2-fluorophenyl)-6-methyl-1-(4-methyl-2-(2-propanyl)-3-pyridinyl)-4-((2S)-2-methyl-4-(2-propenoyl)-1-piperazinyl)pyrido[2,3-d]pyrimidin-2(1H)-one]	0.228 | nda μM	300		
C=CC(=O)N1CCN(c2nc(=O)n(-c3c(C)ccnc3C(C)C)c3nc(-c4c(O)cccc4F)c(C)cc23)[C@@H](C)C1 [Example 74-3, 7-(2-fluoro-6-hydroxyphenyl)-6-methyl-1-(4-methyl-2-(2-propanyl)-3-pyridinyl)-4-((2S)-2-methyl-4-(2-propenoyl)-1-piperazinyl)pyrido[2,3-d]pyrimidin-2(1H)-one]	0.136 | nda μM	347		
C=CC(=O)N1CCN(c2nc(=O)n(-c3c(C)cc(CN(C)C)cc3C(C)C)c3nc(-c4ccccc4F)c(Cl)cc23)[C@@H](C)C1 [Example 80-1, 6-Chloro-1-(4-((dimethylamino)methyl)-2-methyl-6-(2-propanyl)phenyl)-7-(2-fluorophenyl)-4-((2S)-2-methyl-4-(2-propenoyl)-1-piperazinyl)pyrido[2,3-d]pyrimidin-2(1H)-one]	0.08 | nda μM	52		
C=CC(=O)N1CCN(c2nc(CN(C)C)c(-c3ccccc3C(C)C)c3nc(-c4ccccc4F)c(Cl)cc23)[C@@H](C)C1 [Example 86-1, 1-((3S)-4-(3-Chloro-7-((dimethylamino)methyl)-2-(2-fluorophenyl)-8-(2-isopropylphenyl)-1,6-naphthyridin-5-yl)-3-methylpiperazin-1-yl)prop-2-en-1-one]	3.95 | nda μM	4300		
C=CC(=O)N1C[C@H](C)N(c2nc(=O)n(-c3c(C(C)C)ncnc3C(C)C)c3nc(-c4ccccc4F)c(Cl)cc23)[C@@H](C)C1 [Example 87-1, 6-Chloro-4-((2S,6S)-2,6-dimethyl-4-(2-propenoyl)-1-piperazinyl)-1-(4,6-di(2-propanyl)-5-pyrimidinyl)-7-(2-fluorophenyl)pyrido[2,3-d]pyrimidin-2(1H)-one]	0.034 | nda μM	11		
C=CC(=O)N1C[C@@H](C)N(c2nc(=O)n(-c3c(C(C)C)ncnc3C(C)C)c3nc(-c4ccccc4F)c(Cl)cc23)[C@@H](C)C1 [Example 87-2, 6-chloro-4-((2R,6S)-2,6-dimethyl-4-(2-propenoyl)-1-piperazinyl)-1-(4,6-di(2-propanyl)-5-pyrimidinyl)-7-(2-fluorophenyl)pyrido[2,3-d]pyrimidin-2(1H)-one]	0.035 | nda μM	33		
C=CC(=O)N1CCN(c2nc(=O)n(-c3c(C(C)C)ncnc3C(C)C)c3nc(-c4ccc(C#N)cc4F)c(Cl)cc23)[C@@H](C)C1 [Example 87-4, 4-(6-chloro-1-(4,6-di(2-propanyl)-5-pyrimidinyl)-4-((2S)-2-methyl-4-(2-propenoyl)-1-piperazinyl)-2-oxo-1,2-dihydropyrido[2,3-d]pyrimidin-7-yl)-3-fluorobenzonitrile]	0.254 | nda μM	262		
C=CC(=O)N1CCN(c2nc(=O)n(-c3c(C(C)C)ncnc3C(C)C)c3nc(-c4ccc(F)cc4N)c(Cl)cc23)[C@@H](C)C1 [Example 87-5, 7-(2-amino-4-fluoropheny-1)-6-chloro-1-(4,6-di(2-propanyl)-5-pyrimidinyl)-4-((2S)-2-methyl-4-(2-propenoyl)-1-piperazinyl)pyrido[2,3-d]pyrimidin-2(1H)-one]	0.251 | nda μM	181		
C=CC(=O)N1CCN(c2nc(=O)n(-c3ccccc3C(C)C)c3nc(-c4c(F)cccc4C#N)c(Cl)cc23)[C@@H](C)C1 [Example 98, 2-(6-Chloro-4-((2S)-2-methyl-4-(2-propenoyl)-1-piperazinyl)-2-oxo-1-(2-(2-propanyl)phenyl)-1,2-dihydropyrido[2,3-d]pyrimidin-7-yl)-3-fluorobenzonitrile]	0.27 | nda μM	207		
C=CC(=O)N1CCN(c2nc(=O)n(-c3ncncc3C(C)C)c3nc(-c4ccccc4F)c(Cl)cc23)[C@@H](C)C1 [Example 99, 6-Chloro-7-(2-fluorophenyl)-4-((2S)-2-methyl-4-(2-propenoyl)-1-piperazinyl)-1-(5-(2-propanyl)-4-pyrimidinyl)pyrido[2,3-d]pyrimidin-(1H)-one]			237	72
C=CC(=O)N1CCN(c2nc(=O)n(-c3cccnc3CC(C)C)c3nc(-c4ccccc4F)c(Cl)cc23)[C@@H](C)C1 [Example 101, 6-Chloro-7-(2-fluorophenyl)-4-((2S)-2-methyl-4-(2-propenoyl)-1-piperazinyl)-1-(2-(2-methylpropyl)-3-pyridinyl)pyrido[2,3-d]pyrimidin-2(1H)-one]	0.147 | nda μM	148		
C=CC(=O)N1CCN(c2nc(=O)n(-c3c(C)cccc3C(C)C)c3nc(-c4ccccc4F)c(C)cc23)[C@@H](C)C1 [Example 102, 7-(2-Fluorophenyl)-6-methyl-1-(2-methyl-6-(2-propanyl)phenyl)-4-((2S)-2-methyl-4-(2-propenoyl)-1-piperazinyl)pyrido[2,3-d]pyrimidin-2(1H)-one]	0.421 | nda μM	667		
C=CC(=O)N1CCN(c2nc(=O)n(-c3c(CC)cccc3CC)c3cc(-c4ccccc4F)c(Cl)cc23)[C@@H](C)C1 [Example 103, 6-Chloro-1-(2,6-diethylphenyl)-7-(2-fluorophenyl)-4-((2S)-2-methyl-4-(2-propenoyl)-1-piperazinyl)-2(1H)-quinazolinone]	0.099 | nda μM	178		
C=CC(=O)N1CCN(c2nc(=O)n(-c3ncccc3C(C)C)c3cc(-c4ccccc4F)c(Cl)cc23)[C@@H](C)C1 [Example 104, 6-Chloro-7-(2-fluorophenyl)-4-((2S)-2-methyl-4-(2-propenoyl)-1-piperazinyl)-1-(3-(2-propanyl)-2-pyridinyl)-2(1H)-quinazolinone]	0.062 | nda μM	78		
C=CC(=O)N1CCN(c2nc(=O)n(-c3scnc3C(C)C)c3cc(-c4ccccc4F)c(Cl)cc23)[C@@H](C)C1 [Example 105, 6-Chloro-7-(2-fluorophenyl)-4-((2S)-2-methyl-4-(2-propenoyl)-1-piperazinyl)-1-(4-(2-propanyl)-1,3-thiazol-5-yl)-2(1H)-quinazolinone]	0.051 | nda μM	65		
